Series [1] is described as follows: Oral administration of oxycodone prodrugs co-dosed with trypsin inhibitor Compound 109 to rats. In kind it is in vivo, rat.
Series [2] can be described thus: Oral administration of hydrocodone prodrugs KC-40 or KC-50 co-dosed with Compound 109 to rats. To be noted: for Cmax: HC Cmax ± sd.
The nature of series [3]: Spacer leaving group cyclization release rate in pH 7.4 phosphate buffer.
Series [4] is described as follows: Pharmacokinetics following PO administration of increasing doses of Compound KC-31 to rats. To be noted: male, Sprague Dawley, rat, plasma, 10 mg/kg.
Series [5] in a line: Pharmacokinetics of hydrocodone prodrugs following PO administration to dogs, with or without Compound 109.
Series [6] in a line: Pharmacokinetics following PO administration of Compound KC-55 to rats. To be noted: oxycodone in rat plasma, oxycodone 10 mg/kg (28 μmol/kg).
Series [7] is described as follows: Oral administration of Compound KC-55 co-dosed with Compound 109 to rats. To be noted: male, Sprague Dawley, rat, plasma, 36 umol/kg.

For `N=C(N)c1ccc2cc(OC(=O)c3ccc(N=C(N)N)cc3)ccc2c1` [Compound 109, 6-carbamimidoylnaphthalen-2-yl 4-(diaminomethyleneamino)benzoate], the “effect of co-dosed trypsin inhibitor on release of oxycodone by prodrugs KC-12 and KC-17” value in series [1] was “ability to attenuate release of oxycodone”. Also, in series [2] (rats, PO), the “effect of co-dosed trypsin inhibitor on release of hydrocodone by prodrugs KC-40 and KC-50” value is “ability to attenuate release of hydrocodone”.
In the case of `COc1ccc2c3c1O[C@H]1C(OC(=O)N4CCCC[C@@H]4CN)=CC[C@@]4(O)[C@@H](C2)N(C)CC[C@]314` [Compound KC-18, N-(oxycodone-6-enol-carbonyl)-R-(piperidine-2-methylamine)], the half-life at 2.18 mM in series [3] is 0.875 ± 0.016 h.
With `COc1ccc2c3c1O[C@H]1C(=O)CC[C@H]4[C@@H](C2)N(C)CC[C@]314` [Hydrocodone, hydrocodone], the Cmax stood at 5.49 ± 1.7 ng/mL in series [4]; 11.9 ng/mL in series [2] (Sprague Dawley, rat, plasma, po, […], Table 11A: hydrocodone values in Table 10 adjusted to provide expected values at a […] (62 μmol/kg) dose, rat); 12.4 ng/mL in series [2] (Sprague Dawley, rat, plasma, po, […], Table 11B: hydrocodone values in Table 10 adjusted to provide expected values at a 62 μmol/kg ([…]) dose, rat). Moreover, the Tmax in series [4] was found to be 1.06 ± 0.72 h; in series [2] (Sprague Dawley, rat, plasma, po, […]) it was 1.06 h. Also, the “HC Cmax ± sd” value in series [5] (Table 12: dog, […] values adjusted to expected value for a 2 μmol/kg dose (4 dose equivalents)) is 56.0 n/a^ ng/mL; in series [5] (Table 12: dog, […] values adjusted to expected value for a 5 μmol/kg dose (10 dose equiv)), 140 n/a^ ng/mL; in series [5] (Table 13: dog plasma, PO, hydrocodone […] (0.5 μmol/kg)) it was 14.0 ± 4.3^ ng/mL; in series [5] (Table 13: dog, […] values adjusted to expected value for a 5 μmol/kg dose (10 dose equiv)) it was 140 n/a^ ng/mL. For the same compound, the “Tmax ± sd” value in series [2] (Table 11B: hydrocodone values in Table 10 adjusted to provide expected values at a 62 μmol/kg ([…]) dose, rat) was 1.06 h.
For `COc1ccc2c3c1O[C@H]1C(=O)CC[C@@]4(O)[C@@H](C2)N(C)CC[C@]314` [Oxycodone, oxycodone], the “OC Cmax ± sd” value in series [6] is 14.7 ± 6.5^ ng/mL. In series [7], the Cmax turned out to be 18.8 ng/mL.

These data come from patent publication US8685916B2, “Opioid prodrugs with heterocyclic linkers” (Signature Therapeutics, Inc., priority 2011, dated 2014).
